According to patent US20230023009A1, “HETEROCYCLIC COMPOUNDS AND METHODS OF USE THEREOF” (SPARCBIO LLC, priority 2020, published 2023):

Biological target: KRAS G12C protein (Homo sapiens, UniProt P01116, G12C)
Test: Nucleotide exchange assay (Method III, KRAS G12C/Raf-RBD TR-FRET)
Assay type: biochemical
Conditions: SOS1-mediated exchange of GDP for GTP, 18 hr compound incubation
Description: Method III. Inhibition of SOS1-mediated exchange of GDP for GTP on the KRAS G12C protein was measured in a biochemical assay that monitors association of KRAS G12C protein with the Ras-binding domain of Raf (Raf-RBD), where the association is coupled to exchange of GDP to GTP on the KRAS G12C protein. The assay was performed at WuXi AppTec (Shanghai, China). Compounds were serially diluted in 3-fold dilutions to 11 concentrations and spotted into the wells of an assay plate in a total volume of 150 nL DMSO per well. A 2× enzyme mix was prepared by diluting GDP-bound, His-tagged KRAS G12C to 25 nM in assay buffer. 10 μL/well of 2× enzyme mix was added to all wells, and the plate was sealed and incubated overnight (18 hr) at 23° C. 4×SOS1/GDP and 4×SOS1/GTP were prepared in assay buffer. 5 μL/well of 4×SOS1/GDP mix was added to negative control wells, 5 μL/well of 4×SOS1/GTP mix was added to the remaining wells, and the plate was further incubated at 23° C. for 1 hr. Finally, FLAG-tagged Raf-RBD is added to the reaction mixture along with a pair of FRET donor- and acceptor-conjugated antibodies specific for the FLAG-tagged Raf-RBD and His-tagged KRAS G12C proteins. A 4×Raf-RBD/Tb-anti-FLAG/D2-anti-His mix was prepared in assay buffer, and 5 μL/well of the mix was added to all wells, followed by incubation at room temperature for 2 hr. The TR-FRET signals, which increase with association of KRAS G12C and Raf-RBD, were measured on a Perkin Elmer Envision 2104 plate reader, and data were analyzed by non-linear regression to obtain IC50 values for inhibition by compounds. Table 2 includes results of the assay of Method III. ‘+++’ indicates IC50 values≤300 nM, ‘++’ indicates IC50 values between 300 nM-3 μM, and ‘+’ indicates IC50 values≥3 μM.

Sequence of KRAS G12C protein (P01116 1-188 isoform P01116-2 G12C): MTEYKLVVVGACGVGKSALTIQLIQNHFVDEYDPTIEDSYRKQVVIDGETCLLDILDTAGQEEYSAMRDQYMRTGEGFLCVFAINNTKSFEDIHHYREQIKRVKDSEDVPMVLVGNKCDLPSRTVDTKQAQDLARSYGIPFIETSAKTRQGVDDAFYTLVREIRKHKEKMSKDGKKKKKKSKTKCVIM

Compound | IC50
C=CC(=O)N1CCN(c2nc(OC[C@@H]3CCCN3C)nc3c2COC(c2cccc4cccc(Cl)c24)C3)C[C@@H]1CC#N (single isomer, unassigned) [38 (Isomer A)] | 0.3 to 3 µM
C=C(F)C(=O)N1CCN(c2nc(OC[C@@H]3CCCN3C)nc3c2COC(c2cccc4cccc(Cl)c24)C3)C[C@H]1C (single isomer, unassigned) [42 (Isomer A)] | ≥ 3 µM
C=C(F)C(=O)N1CCN(c2nc(OC[C@@H]3CCCN3C)nc3c2COC(c2cccc4cccc(Cl)c24)C3)C[C@H]1C (single isomer, unassigned) [42 (Isomer B)] | ≥ 3 µM
C=C(F)C(=O)N1CCN(c2nc(OC[C@@H]3CCCN3C)nc3c2COC(c2cccc4cccc(Cl)c24)C3)[C@@H](C)C1 (single isomer, unassigned) [44 (Isomer A)] | ≥ 3 µM
C=C(F)C(=O)N1CCN(c2nc(OC[C@@H]3CCCN3C)nc3c2COC(c2cccc4cccc(Cl)c24)C3)[C@@H](C)C1 (single isomer, unassigned) [44 (Isomer B)] | 0.3 to 3 µM
C=C(F)C(=O)N1CCN(c2nc(OC[C@@H]3CCCN3C)nc3c2COC(c2c(C)ccc4[nH]ncc24)C3)C[C@@H]1CC#N (single isomer, unassigned) [52 (Isomer A)] | 0.3 to 3 µM
C=C(F)C(=O)N1CCN(c2nc(OC[C@@H]3CCCN3C)nc3c2OCC(c2cccc4cccc(Cl)c24)O3)C[C@@H]1CC#N (single isomer, unassigned) [64 (Isomer A)] | 0.3 to 3 µM
C=C(F)C(=O)N1CCN(c2nc(OC[C@@H]3CCCN3C)nc3c2OCC(c2cccc4cccc(Cl)c24)O3)C[C@@H]1CC#N (single isomer, unassigned) [64 (Isomer B)] | 0.3 to 3 µM
C=CC(=O)N1CCN(c2nc(OC[C@@H]3CCCN3C)nc3c2OCC(c2cccc4cccc(Cl)c24)O3)CC1 (single isomer, unassigned) [135 (Isomer A)] | ≥ 3 µM
C=CC(=O)N1CCN(c2nc(OC[C@@H]3CCCN3C)nc3c2OCC(c2cccc4cccc(Cl)c24)O3)CC1 (single isomer, unassigned) [135 (Isomer B)] | ≥ 3 µM
C=C(F)C(=O)N1CCN(c2nc(OC[C@@H]3CCCN3C)nc3c2OCC(c2cccc4cccc(Cl)c24)O3)[C@@H](C)C1 (single isomer, unassigned) [136 (Isomer A)] | ≥ 3 µM
C=C(F)C(=O)N1CCN(c2nc(OC[C@@H]3CCCN3C)nc3c2OCC(c2cccc4cccc(Cl)c24)O3)[C@@H](C)C1 (single isomer, unassigned) [136 (Isomer B)] | ≥ 3 µM
C=C(F)C(=O)N1CCN(c2nc(N3CC(N(CC)CC)C3)nc3c2COC(c2cccc4cccc(Cl)c24)C3)C[C@@H]1CC#N (single isomer, unassigned) [229 (Isomer B)] | ≥ 3 µM
C=C(F)C(=O)N1CCN(c2nc(N3CCC(N(CC)CC)CC3)nc3c2COC(c2cccc4cccc(Cl)c24)C3)C[C@@H]1CC#N (single isomer, unassigned) [230 (Isomer A)] | ≥ 3 µM
C=C(F)C(=O)N1CCN(c2nc(N3CCC(N(CC)CC)CC3)nc3c2COC(c2cccc4cccc(Cl)c24)C3)C[C@@H]1CC#N (single isomer, unassigned) [230 (Isomer B)] | 0.3 to 3 µM
C=C(F)C(=O)N1CCN(c2nc(NC3CCN(S(C)(=O)=O)CC3)nc3c2COC(c2cccc4cccc(Cl)c24)C3)C[C@@H]1CC#N (single isomer, unassigned) [231 (Isomer A)] | ≥ 3 µM
C=C(F)C(=O)N1CCN(c2nc(NC3CCN(S(C)(=O)=O)CC3)nc3c2COC(c2cccc4cccc(Cl)c24)C3)C[C@@H]1CC#N (single isomer, unassigned) [231 (Isomer B)] | ≥ 3 µM
C=C(F)C(=O)N1CCN(c2nc(NCCC(=O)N(C)C)nc3c2COC(c2cccc4cccc(Cl)c24)C3)C[C@@H]1CC#N (single isomer, unassigned) [232 (Isomer A)] | 0.3 to 3 µM
C=C(F)C(=O)N1CCN(c2nc(NCCC(=O)N(C)C)nc3c2COC(c2cccc4cccc(Cl)c24)C3)C[C@@H]1CC#N (single isomer, unassigned) [232 (Isomer B)] | ≥ 3 µM
C=C(F)C(=O)N1CCN(c2nc(Nc3cnn(C)c3)nc3c2COC(c2cccc4cccc(Cl)c24)C3)C[C@@H]1CC#N (single isomer, unassigned) [233 (Isomer A)] | ≥ 3 µM
C=C(F)C(=O)N1CCN(c2nc(Nc3cnn(C)c3)nc3c2COC(c2cccc4cccc(Cl)c24)C3)C[C@@H]1CC#N (single isomer, unassigned) [233 (Isomer B)] | ≥ 3 µM

Compound | IC50
C=C(F)C(=O)N1CCN(c2nc(OC3CCN(C)CC3)nc3c2COC(c2cccc4cccc(Cl)c24)C3)C[C@@H]1CC#N (single isomer, unassigned) [234 (Isomer A)] | ≥ 3 µM
C=C(F)C(=O)N1CCN(c2nc(OC3CCN(C)CC3)nc3c2COC(c2cccc4cccc(Cl)c24)C3)C[C@@H]1CC#N (single isomer, unassigned) [234 (Isomer B)] | 0.3 to 3 µM
C=C(F)C(=O)N1C[C@H](C)N(c2nc(OC[C@@H]3CCCN3C)nc3c2COC(c2cccc4cccc(Cl)c24)C3)C[C@H]1C (single isomer, unassigned) [235 (Isomer A)] | ≥ 3 µM
C=C(F)C(=O)N1C[C@H](C)N(c2nc(OC[C@@H]3CCCN3C)nc3c2COC(c2cccc4cccc(Cl)c24)C3)C[C@H]1C (single isomer, unassigned) [235 (Isomer B)] | ≥ 3 µM
C=C(F)C(=O)N1[C@H](C)CN(c2nc(OC[C@@H]3CCCN3C)nc3c2COC(c2cccc4cccc(Cl)c24)C3)C[C@@H]1C (single isomer, unassigned) [237 (Isomer A)] | ≥ 3 µM
C=C(F)C(=O)N1[C@H](C)CN(c2nc(OC[C@@H]3CCCN3C)nc3c2COC(c2cccc4cccc(Cl)c24)C3)C[C@@H]1C (single isomer, unassigned) [237 (Isomer B)] | ≥ 3 µM
C=C(F)C(=O)N1CCN(c2nc(OC[C@@H]3CCCN3C)nc3c2COC(c2cccc4cccc(Cl)c24)C3)CC1(C)C (single isomer, unassigned) [238 (Isomer A)] | ≥ 3 µM
C=C(F)C(=O)N1CCN(c2nc(OC[C@@H]3CCCN3C)nc3c2COC(c2cccc4cccc(Cl)c24)C3)CC1(C)C (single isomer, unassigned) [238 (Isomer B)] | ≥ 3 µM
C=C(Cl)C(=O)N1CCN(c2nc(OC[C@@H]3CCCN3C)nc3c2COC(c2cccc4cccc(Cl)c24)C3)C[C@@H]1CC#N (single isomer, unassigned) [239 (Isomer A)] | ≥ 3 µM
C=C(C)C(=O)N1CCN(c2nc(OC[C@@H]3CCCN3C)nc3c2COC(c2cccc4cccc(Cl)c24)C3)C[C@@H]1CC#N (single isomer, unassigned) [240 (Isomer A)] | ≥ 3 µM
C=C(C)C(=O)N1CCN(c2nc(OC[C@@H]3CCCN3C)nc3c2COC(c2cccc4cccc(Cl)c24)C3)C[C@@H]1CC#N (single isomer, unassigned) [240 (Isomer B)] | ≥ 3 µM
C/C=C/C(=O)N1CCN(c2nc(OC[C@@H]3CCCN3C)nc3c2COC(c2cccc4cccc(Cl)c24)C3)C[C@@H]1CC#N (single isomer, unassigned) [241 (Isomer B)] | 0.3 to 3 µM
CN(C)C/C=C/C(=O)N1CCN(c2nc(OC[C@@H]3CCCN3C)nc3c2COC(c2cccc4cccc(Cl)c24)C3)C[C@@H]1CC#N (single isomer, unassigned) [242 (Isomer A)] | ≥ 3 µM
CN(C)C/C=C/C(=O)N1CCN(c2nc(OC[C@@H]3CCCN3C)nc3c2COC(c2cccc4cccc(Cl)c24)C3)C[C@@H]1CC#N (single isomer, unassigned) [242 (Isomer B)] | ≤ 0.3 µM
CC#CC(=O)N1CCN(c2nc(OC[C@@H]3CCCN3C)nc3c2COC(c2cccc4cccc(Cl)c24)C3)C[C@@H]1CC#N (single isomer, unassigned) [243 (Isomer A)] | ≥ 3 µM
C=C(F)C(=O)N1CCN(c2nc(Oc3cccc4c3CN(C)CC4)nc3c2COC(c2cccc4cccc(Cl)c24)C3)C[C@@H]1CC#N (single isomer, unassigned) [249 (Isomer A)] | 0.3 to 3 µM
C=C(F)C(=O)N1CCN(c2nc(Oc3cccc4c3CN(C)CC4)nc3c2COC(c2cccc4cccc(Cl)c24)C3)C[C@@H]1CC#N (single isomer, unassigned) [249 (Isomer B)] | ≥ 3 µM
C=C(F)C(=O)N1CCN(c2nc(Oc3cccc4c3CCN(C)C4)nc3c2COC(c2cccc4cccc(Cl)c24)C3)C[C@@H]1CC#N (single isomer, unassigned) [250 (Isomer A)] | 0.3 to 3 µM
C=C(F)C(=O)N1CCN(c2nc(Oc3cccc4c3CCN(C)C4)nc3c2COC(c2cccc4cccc(Cl)c24)C3)C[C@@H]1CC#N (single isomer, unassigned) [250 (Isomer B)] | 0.3 to 3 µM
C=C(F)C(=O)N1CCN(c2nc(OC[C@@H]3CCCN3C)nc3c2COC(c2cccc4cccc(Cl)c24)C3(C)C)C[C@@H]1CC#N (single isomer, unassigned) [258 (Isomer A)] | ≥ 3 µM
